Converted amounts (≈) assume the structure as drawn. Read-outs that look alike come from different tables or passages of the source.
System: E. coli ATCC 25922
Experiment: Broth microdilution MIC
Format: cell-based, Escherichia coli
Settings: for MIC: Escherichia coli, ATCC25922, read-out: Minimal Inhibitory Concentration, E. coli ATCC 25922
Experimental: The process for preparing susceptibility test medium are the following steps: • a. Preparing Mueller Hinton Broth II medium by adding 22 grams powdered media to 1.0 liter distilled water; • b. Autoclaving (121° C., 15 psi, 15 minutes) and cooling the medium; • c. Adding Oxyrase® up to about 10% final volume and keeping at 35-37° C. in an incubator for 30 minutes; • d. Adding about 50 μL to each well of a 96 well microtiter plate; • e. Weighing drug and adding broth to drug to bring up to about (standard 128 μg/ml); • f. Adding 50 μL of the drug to the first column of the titer plate; • g. Diluting by two-fold serial diluting across or down the plate. • h. Preparing a Prompt™ inoculum at 10^8 CFU/ml; • i. Diluting inoculum 1:100 in the broth at […] in 9.9 ml (1:100) is 10^6 colony forming units (CFU) forming the adjusted inoculum; • j. Adding 50 μL of the adjusted inoculum to the wells of the microtiter plate; • k. Incubating the plates at 35-37° C. for 18-22 hours; and • l. Reading, with the unaided eye, the MIC.
The in vitro activities of tigecycline and control antibiotics were determined by the broth microdilution method as recommended by the NCCLS. (National Committee for Clinical Laboratory Standards, 2003. Methods for Dilution Antimicrobial Susceptibility Tests for Bacteria That Grow Aerobically; Approved Standards: M7-A6, Sixth ed, vol. 23., National Committee for Clinical Laboratory Standards Wayne, Pa.) was used for the standard procedures. MBH with 5% lysed horse blood was used for testing S. pneumoniae and Haemophilus Test Medium was used for testing H. influenzae. Oxyrase® (Oxyrase Inc, Mansfield, Ohio) was used according to the manufacturer's instructions by adding 1 ml of Oxyrase® to 50 ml of media. Media age studies were performed by preparing MHB in multiple flasks, then storing the media under various conditions. MICs were usually performed in duplicate on each day of testing. Storage under anaerobic conditions was conducted in an anaerobic chamber (MACS MG 1000, Don Whitley Scientific LTD). The pH of the media was determined by pH meter (Corning 430). A comparison of the in vitro activity of tigecycline by agar and broth dilution methodolgies with and without Oxyrase® against clinical isolates is shown in Table 1.

[1] = Table 8, E. coli ATCC 25922, Mueller Hinton Broth + Oxyrase, n = 240
[2] = Table 8, E. coli ATCC 25922, Mueller Hinton Broth, n = 320
[3] = Table 9, E. coli ATCC 25922, Mueller Hinton Broth + Oxyrase, n = 33
[4] = Table 9, E. coli ATCC 25922, Mueller Hinton Broth, n = 90

CN(C)c1cc(NC(=O)CNC(C)(C)C)c(O)c2c1C[C@H]1C[C@H]3[C@H](N(C)C)C(O)=C(C(N)=O)C(=O)[C@@]3(O)C(O)=C1C2=O [Tigecycline, tigecycline]
MIC (Freshly Prepared Media, N = 8): 0.12 to 0.25 µg/mL (≈ 0.205 to 0.427 µM) | MIC (Freshly Prepared media, N = 4): 0.03 µg/mL (≈ 0.0512 µM) | MIC (MHB II + 0.05% Catalase): 0.5 µg/mL | MIC (MHB II + 0.05% L-ascorbic Acid): 2 µg/mL | MIC (MHB II + 0.05% L-cysteine): 0.5 µg/mL | MIC (MHB II + 0.05% Sodium Pyruvate): 0.12 µg/mL | MIC (MHB II + 0.05% Thioglycolate): 0.12 µg/mL | MIC (MHB II + 2% Oxyrase): 0.06 µg/mL | MIC (Mueller Hinton Broth II (Fresh)): 0.06 to 0.25 µg/mL (≈ 0.102 to 0.427 µM) | MIC (Mueller Hinton Broth II (MHB II)): 0.12 to 0.25 µg/mL (≈ 0.205 to 0.427 µM) | MIC (No Oxyrase): 0.12 µg/mL (≈ 0.205 µM) | MIC (media Aged Anaerobic, N = 4): 0.03 to 0.06 µg/mL (≈ 0.0512 to 0.102 µM) | Number of Occurrences of MIC 0.06 ug/ml [1]: 130 | Number of Occurrences of MIC 0.12 ug/ml [1]: 103 | Number of Occurrences of MIC 0.25 ug/ml [1]: 5 | Number of Occurrences of MIC 1 ug/ml [1]: 2 | Number of Occurrences of MIC 0.12 ug/ml [2]: 24 | Number of Occurrences of MIC 0.25 ug/ml [2]: 210 | Number of Occurrences of MIC 0.5 ug/ml [2]: 23 | Number of Occurrences of MIC 1 ug/ml [2]: 58 | Number of Occurrences of MIC 2 ug/ml [2]: 4 | Number of Occurrences of MIC 4 ug/ml [2]: 1 | Number of Occurrences of MIC 0.03 ug/ml [3]: 3 | Number of Occurrences of MIC 0.06 ug/ml [3]: 13 | Number of Occurrences of MIC 0.12 ug/ml [3]: 14 | Number of Occurrences of MIC 0.25 ug/ml [3]: 3 | Number of Occurrences of MIC 0.06 ug/ml [4]: 1 | Number of Occurrences of MIC 0.12 ug/ml [4]: 15 | Number of Occurrences of MIC 0.25 ug/ml [4]: 47 | Number of Occurrences of MIC 0.5 ug/ml [4]: 27

From patent US20050130252A1, “Stabilized susceptibility tests of aerobic pathogens” (Wyeth Holdings Corporation, priority 2003, published 2005)
